Test results taken from patent US20240299553A1, “INDOCARBOCYANINE LIPID DERIVATIVES FOR IN VIVO CARGO DELIVERY” (priority 2021, published 2024).
pEC50: −log10 of the molar value. One block for each molecule: values may come before it.

How the values were obtained:
[1] = test system: 4T1 syngeneic orthotopic breast carcinoma; assay: Confocal microscopy of 4T1 tumor slices after i.v. injection of dual-labeled liposomes; assay type: in vivo, mice; conditions: for extravasation and migration area in tumor: 24 h after i.v., 290 nm EPC/DSPE-PEG2000 liposomes with 0.2% DiD and Cy3-DSPE
Method: Lipids at the following molar ratios: HSPC/Chol/DSPE-PEG2000 (57/38/5) or EPC/DSPE-PEG2000 (95:5) with addition of 0.2% ICL and/or 0.2% FPL were mixed and dried under a nitrogen stream. The dry lipid cake was resuspended in PBS for a total lipid concentration of 20 mM, then incubated at 60° C. for 30 minutes. The solution was then vortexed for 2 minutes and bath sonicated. Liposomes were extruded by a syringe extruder (Avestin, Ottawa, Canada) through Whatman Nucleopore Track-Etch Membranes (200 nm pore size, 15 times). HSPC-based liposomes were extruded at 60° C., EPC-based liposomes were extruded at room temperature. Size and zeta potential were measured at room temperature in the presence of 1% phosphate-buffered saline using Zetasizer Nano (Malvern, UK). Liposomes were stored at 4° C. at a final concentration of 10 mM (total lipid) for a maximum period of 8 weeks before use.
4T1 cell line was purchased from the ATCC and verified using a sequencing core. GL261 cells were obtained from the National Cancer Institute (NCI), and CT2A cells were a gift from Dr. Tom Seyfried (Boston College). LY2 cells were from Dr. Sana Karam, University of Colorado Anschutz Medical campus. Cells were grown at 37° C. in RPMI 1640 medium containing 10% heat-inactivated fetal bovine serum, 10 mM HEPES, 100 U/ml penicillin, and […] streptomycin (all from Corning Inc. New York, NY, USA). BALB/c mice were bred in-house. Mice of 8-10 weeks of age (females) were implanted with 0.5×10^6 cells into the mammary fat pad (4T1) or subcutaneously in the jaw region (LY2) and used for experiments 1 week later when tumors reached ˜200-300 mm^3. For brain tumors, C57BL/6 mice (6-8 weeks old) were implanted with a total 1×10^5 GL261 or CT-2A cells per animal using an established protocol. To determine the distribution of liposomes in tumors and organs, liposomes were injected with 50 μl of 10 mM total lipid intravenously. Blood was collected via periorbital plexus using heparin glass capillaries, and the plasma was separated by centrifugation at 500 g for 5 min. In some experiments, mice were preinjected before dissection with 50 μl of FITC-tomato lectin (1 mg/ml) and 50 μl Hoechst 33324 (2 mg/ml) to visualize the vasculature and the nuclei. Mice were sacrificed with carbon dioxide, followed by cardiac perfusion with PBS through the left ventricle.
Nikon Eclipse AR1HD inverted confocal microscope with 405 nm, 488 nm, 561 nm, and 640 nm excitation lasers and corresponding emission filters was used. For high magnification imaging, liposomes were diluted 1:200 in PBS, mixed with glycerol at 1:1 ratio and 2 μl were placed on slide. For liposomes in plasma, the samples were diluted 1:20 and mixed with glycerol. The preparations in glycerol were spread under a coverslip and imaged under Apo60 or Apo100 Oil objective at 2048×2048 resolution. For tumor imaging, tumors or whole brains were frozen on dry ice and sliced with a blade into 1-2 mm thick slices. The slices were placed on a glass slide and imaged using Plan Apo 10 objective. Channels' voltage and laser intensity were adjusted using the dual labeled liposomes placed on a slide and imaged under the same magnification. These parameters were calibrated before each imaging session using the batch of liposomes used in that experiment. For quantification, multiple random image areas from different slices of the tumor (both periphery and center) were acquired at 512×512 resolution. Images were quantified with Fiji using customized macros. Briefly, 8-bit gray image stacks were thresholded for fluorescence in the Cy3 and Cy5 channels and the percentages of binary (positive) areas were calculated using the “Measure” function. All the data were plotted with Prism version 8.3.0 (GraphPad, San Diego, CA).

LY2 head and neck cancer = assay: Confocal microscopy of LY2 tumors after injection of dual-labeled liposomes; assay type: in vivo, mice; conditions: 24 h; DiI/Cy5-DSPE labeled EPC/DSPE-PEG2000 liposomes
Method: (§1) 4T1 cell line was purchased from the ATCC and verified using a sequencing core. GL261 cells were obtained from the National Cancer Institute (NCI), and CT2A cells were a gift from Dr. Tom Seyfried (Boston College). LY2 cells were from Dr. Sana Karam, University of Colorado Anschutz Medical campus. Cells were grown at 37° C. in RPMI 1640 medium containing 10% heat-inactivated fetal bovine serum, 10 mM HEPES, 100 U/ml penicillin, and […] streptomycin (all from Corning Inc. New York, NY, USA). BALB/c mice were bred in-house. Mice of 8-10 weeks of age (females) were implanted with 0.5×10^6 cells into the mammary fat pad (4T1) or subcutaneously in the jaw region (LY2) and used for experiments 1 week later when tumors reached ˜200-300 mm^3. […]
(§2) Nikon Eclipse AR1HD inverted confocal microscope with 405 nm, 488 nm, 561 nm, and 640 nm excitation lasers and corresponding emission filters was used. […] For quantification, multiple random image areas from different slices of the tumor (both periphery and center) were acquired at 512×512 resolution. Images were quantified with Fiji using customized macros. Briefly, 8-bit gray image stacks were thresholded for fluorescence in the Cy3 and Cy5 channels and the percentages of binary (positive) areas were calculated using the “Measure” function. […]

[2] = Skin extravasation and accumulation of liposomal lipid dyes; assay type: in vivo, Mouse
Method: FIG. 40B: Liposomes were formulated with Cy3-DSPE, LR-DOPE or DiI. FIG. 40C: Mouse skin was excised 4 days after injection and the microscopic areas of accumulation and extravasation were counted. […] FIG. 40D-40F: circulation and skin accumulation of DiD and Cy5-DSPE liposomes (n=3 per group, 9 different skin areas pooled). FIG. 40G-40H: mixed DiI/Cy5-DSPE liposomes colocalize in skin blood vessels at 1 h, and colocalize in plasma (1000× magnification zoomed). Arrows in FIG. 40G point to DiI extravasation. […] Similar results were observed when mixed Cy3-DSPE/DiD liposomes were used (lower panel).

[3] = test system: syngeneic intracranial GL261 glioma; assay: Confocal microscopy of brain slices of GL261 glioma mice after i.v. dual-labeled liposomes; assay type: in vivo; conditions: 48 h post-injection, EPC/DSPE-PEG2000 liposomes, 0.2% DiI and 0.2% Cy5-DSPE
Method: as §1, §2

[4] = Lipid extraction of tumors and organs, dye biodistribution; assay type: in vivo, mice; conditions: 48 h post-injection
Method: For extraction using a modified Bligh-Dyer method, 50-100 mg tissue was homogenized as described above, 10 parts of chloroform/methanol (2:1) were added to the homogenate (considering that tissue weight is 1 part), and the samples were mixed at 1400 rpm for 2 h at room temperature on Eppendorf Thermomixer. The tubes were centrifuged at 500 g for 10 min. The organic phase (bottom, approximately 80% of the added amount) was carefully collected, dotted on a PVDF membrane and scanned for DiI and Cy5 fluorescence as described above. Different dilutions of liposomes (standard curve) were scanned together with the samples. The percentage of the injected DiI and Cy5 in the extract was calculated from the standard curve and divided by tissue weight. The fluorescence of control non-injected organs was subtracted from that of injected organs. For TLC analysis, the mobile phase consisted of chloroform: methanol (9:1) with 1% trifluoroacetic acid and the samples were run on TLC Silica Gel 60 F254 plates (EMD Millipore).

[5] = Ex vivo fluorescence imaging of excised tumors and livers; assay type: in vivo, mice
Method: Tumors and livers were placed in a 24-well plate and scanned as described above. To match the intensity of the channels, the same liposomes used for injection were diluted (1:10), dotted on a 0.45 μm nitrocellulose membrane, and scanned together with the samples. Mean fluorescence was determined from 8-bit TIFF images using Fiji software by drawing a region of interest around the tumors and using the “Measure” function to determine mean gray values. Such measurement is independent of the organ cross-section area. The mean gray values of non-injected tumors were subtracted from the measurements. For plasma fluorescence profile, plasma collected at different time points was serially diluted, dotted on a nitrocellulose membrane, scanned as above, and the mean fluorescence of dots was plotted versus time with Prism.

[6] = Plasma fluorescence elimination profile after liposome injection; assay type: in vivo, mice; conditions: 24 h post-injection; DiI/Cy5-DSPE liposomes
Method: as §1, with “mm^3. For brain tumors, C57BL/6 mice (6-8 weeks old) were implanted with a total 1×10^5 GL261 or CT-2A cells per animal using an established protocol.” for “mm^3.”
Tumors and livers were placed in a 24-well plate and scanned as described above. […] Mean fluorescence was determined from 8-bit TIFF images using Fiji software by drawing a region of interest around the tumors and using the “Measure” function to determine mean gray values. […] For plasma fluorescence profile, plasma collected at different time points was serially diluted, dotted on a nitrocellulose membrane, scanned as above, and the mean fluorescence of dots was plotted versus time with Prism.

MOLM13 leukemic cells = assay: MTT cytotoxicity assay in MOLM13 leukemic cells; assay type: cell-based; conditions: Homo sapiens, MOLM-13, 48 h
human glioma cell lines = conditions: cited from earlier work

- extravasation and migration area in tumor ([1]; p-value<0.0001): mostly stayed in blood vessels
Compound: CCCCCCCCCCCCCCCCCC(=O)OC[C@H](COP(=O)(O)OCCNC(=O)CCCCCN1/C(=C/C=C/C2=[N+](C)c3ccccc3C2(C)C)C(C)(C)c2ccccc21)OC(=O)CCCCCCCCCCCCCCCCC.O=C[O-] [Cy3-DSPE]

Compound: CCCCCCCCCCCCCCCCCCN1C(=CC=CC=CC2=[N+](CCCCCCCCCCCCCCCCCC)c3ccccc3C2(C)C)C(C)(C)c2ccccc21.O=S(=O)([O-])c1ccc(Cl)cc1 [DiD]
- extravasation and migration area in tumor ([1]; p-value<0.0001): extravasated and migrated over a significantly larger area than Cy3-DSPE

Compound: CCCCCCCCCCCCCCCCCCN1C(=CC=CC2=[N+](CCCCCCCCCCCCCCCCCC)c3ccccc3C2(C)C)C(C)(C)c2ccccc21.[O-][Cl+3]([O-])([O-])[O-] [DiI]
- extravasation in tumor (LY2 head and neck cancer): much better extravasation
- extravasation and accumulation in skin cells ([2]; mixed DiI/Cy5-DSPE liposomes, 4 days later): only DiI extravasated and accumulated in skin cells
- skin extravasation ([2]; skin excised 4 days after injection, liposomes with Cy3-DSPE, LR-DOPE or DiI): more efficient extravasation than phospholipid dyes
- fluorescence positive area in tumor images ([1]; 4 h, 24 h and 48 h post-injection, EPC/DSPE-PEG2000 DiI/Cy5-DSPE liposomes, p-value<0.0001): significantly larger area than Cy5-DSPE
- extravasation and spreading in tumor ([1]; 24 h, 150 nm HSPC/Chol/DSPE-PEG2000 liposomes (DOXIL formula), 0.2% DiI and Cy5-DSPE): more efficient extravasation and spreading
- extravasation and distribution in tumor ([1]; 24 h post-injection, EPC/DSPE-PEG2000 liposomes, 0.2 mole % DiI and Cy5-DSPE, i.v.): efficiently extravasated and migrated throughout the tumor
- accumulation and spreading in glioma [3]: accumulated and spread in tumors much more efficiently than Cy5-DSPE
- tissues with the highest dye amount [4]: highest in the tumor and liver
- dye amount in tumor and organ extracts over time ([4]; tumors, livers, spleens, kidneys, 1 h, 24 h): increase in all organs except the kidney over 48 h
- fluorescence in liver images over time ([5]; livers, later time points versus 1 h): increase
- fluorescence in tumor images over time ([5]; tumors, 1 h, 24 h, 48 h post-injection): continued to increase at 24 h and 48 h
- dye cleared from the circulation [6]: approximately 80%

Compound: Nc1ccn([C@@H]2O[C@H](CO)[C@@H](O)[C@@H]2O)c(=O)n1 [cytarabine]
- pEC50 (MOLM13 leukemic cells): 7.19

Compound: COc1cccc2c1C(=O)c1c(O)c3c(c(O)c1C2=O)C[C@@](O)(C(=O)CO)C[C@@H]3O[C@H]1C[C@H](N)[C@H](O)[C@H](C)O1 [doxorubicin]
- toxicity to glioma cells (IC50) (human glioma cell lines): nanomolar range

Compound: CC(=O)O[C@H]1C(=O)[C@@]2(C)[C@H]([C@H](OC(=O)c3ccccc3)[C@]3(O)C[C@H](OC(=O)[C@H](O)[C@@H](NC(=O)c4ccccc4)c4ccccc4)C(C)=C1C3(C)C)[C@]1(OC(C)=O)CO[C@@H]1C[C@@H]2O [paclitaxel]
- toxicity to glioma cells (IC50) (human glioma cell lines): nanomolar range
